The target of this assay is ROCK2 (human) (UniProt O75116). Briefly: Inhibition of ROCK2 Kinase Activity.
ROCK2 (human), sequence (O75116 whole entry, looked up): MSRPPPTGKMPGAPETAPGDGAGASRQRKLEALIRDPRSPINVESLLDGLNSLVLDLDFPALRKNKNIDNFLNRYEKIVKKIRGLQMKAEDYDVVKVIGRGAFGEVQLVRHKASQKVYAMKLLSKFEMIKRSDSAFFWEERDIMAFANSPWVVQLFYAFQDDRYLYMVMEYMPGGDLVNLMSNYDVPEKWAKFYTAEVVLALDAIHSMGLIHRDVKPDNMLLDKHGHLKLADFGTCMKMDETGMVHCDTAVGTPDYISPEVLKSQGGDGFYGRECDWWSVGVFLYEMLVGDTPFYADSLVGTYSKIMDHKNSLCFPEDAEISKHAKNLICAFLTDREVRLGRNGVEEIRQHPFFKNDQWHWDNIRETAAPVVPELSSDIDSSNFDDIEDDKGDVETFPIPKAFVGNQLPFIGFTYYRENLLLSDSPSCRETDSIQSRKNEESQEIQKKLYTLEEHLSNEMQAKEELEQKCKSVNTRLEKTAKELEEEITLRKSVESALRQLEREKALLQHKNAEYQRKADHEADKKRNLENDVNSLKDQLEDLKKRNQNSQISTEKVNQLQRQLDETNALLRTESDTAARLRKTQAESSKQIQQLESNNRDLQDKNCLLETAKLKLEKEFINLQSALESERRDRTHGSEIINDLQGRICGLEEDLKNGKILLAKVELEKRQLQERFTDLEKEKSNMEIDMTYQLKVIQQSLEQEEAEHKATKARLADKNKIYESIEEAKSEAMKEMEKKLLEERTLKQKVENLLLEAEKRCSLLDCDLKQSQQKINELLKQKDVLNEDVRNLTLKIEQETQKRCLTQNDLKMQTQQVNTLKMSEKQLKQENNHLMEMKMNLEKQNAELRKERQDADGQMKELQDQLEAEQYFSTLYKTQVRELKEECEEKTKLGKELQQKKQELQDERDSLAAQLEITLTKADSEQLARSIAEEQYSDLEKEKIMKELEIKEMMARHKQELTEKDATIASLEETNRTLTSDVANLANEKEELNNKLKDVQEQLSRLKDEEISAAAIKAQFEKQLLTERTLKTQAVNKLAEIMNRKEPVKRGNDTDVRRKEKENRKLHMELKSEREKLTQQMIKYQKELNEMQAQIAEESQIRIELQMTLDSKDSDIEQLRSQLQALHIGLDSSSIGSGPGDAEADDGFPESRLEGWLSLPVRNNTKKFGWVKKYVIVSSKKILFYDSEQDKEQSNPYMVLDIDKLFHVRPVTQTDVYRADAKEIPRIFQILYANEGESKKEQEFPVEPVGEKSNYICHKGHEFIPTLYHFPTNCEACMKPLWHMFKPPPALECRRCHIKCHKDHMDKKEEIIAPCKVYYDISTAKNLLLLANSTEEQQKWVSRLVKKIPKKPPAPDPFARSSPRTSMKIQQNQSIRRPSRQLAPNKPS

What is called IC50 is the concentration needed to halve the response being measured. A low value points to higher potency. For `COc1ccc(CC(=O)N(C)CC(N)c2ccc(C(=O)Nc3ccncc3)cc2)cc1F` (centres undefined), the IC50 was 500 to 5000 nM.

As to `NC(CNC(=O)Cc1cccc(Cl)c1)c1ccc(C(=O)Nc2ccncc2)cc1` (centres undefined), the half-maximal inhibitory concentration (IC50) was in the range of 50 to 500 nM.

`NC(CNC(=O)Cc1csc(-c2ccccc2)n1)c1ccc(C(=O)Nc2ccncc2)cc1` (centres undefined): the 50% inhibitory concentration (IC50) is 50 to 500 nM. `CC1CC1C(=O)NCC(N)c1ccc(C(=O)Nc2ccncc2)cc1` (centres undefined) gave an IC50 of 500 to 5000 nM. Then `CN(CC(N)c1ccc(C(=O)Nc2ccncc2)cc1)C(=O)C1CCSc2ccccc21` (centres undefined), with 5000 to 50000 nM; and `NC(CC(=O)NCCc1cccc(Cl)c1)c1ccc(C(=O)Nc2ccncc2)cc1` (centres undefined), with 50 to 500 nM. For `CN(CC(N)c1ccc(C(=O)Nc2ccncc2)cc1)C(=O)Cc1ccc2ccccc2c1` (centres undefined) the value was 50 to 500 nM. For `NC(c1ccc(C(=O)Nc2ccncc2)cc1)C1CCCN1C(=O)Cc1cccs1` (centres undefined) the value was 50 to 500 nM. `NC(CNC(=O)Cc1ccc(-c2ccccc2)cc1)c1ccc(C(=O)Nc2ccncc2)cc1` (centres undefined) displayed a 50% inhibitory concentration (IC50) of 500 to 5000 nM. For `NC(CNC(=O)c1cccc(F)c1)c1ccc(C(=O)Nc2ccncc2)cc1` (centres undefined) the value was 500 to 5000 nM. For the compound `NC(CC(=O)Nc1cc(-c2ccco2)[nH]n1)c1ccc(C(=O)Nc2ccncc2)cc1` (centres undefined), the IC50 was 50 to 500 nM. Then `Cc1ccccc1NC(=S)NCC(N)c1ccc(C(=O)Nc2ccncc2)cc1` (centres undefined), with 500 to 5000 nM; and `NC(CC(=O)NCc1ccco1)c1ccc(C(=O)Nc2ccncc2)cc1` (centres undefined), with 50 to 500 nM; and `CN(CC(N)c1ccc(C(=O)Nc2ccncc2)cc1)C(=O)Cc1ccc(Cl)cc1F` (centres undefined), with 500 to 5000 nM.

Compound `CC(C)(Cc1ccc(F)cc1)NC(=O)CC(N)c1ccc(C(=O)Nc2ccncc2)cc1` (centres undefined) had a half-inhibitory concentration (IC50) of 50 to 500 nM. The compound `NC(CNC(=O)Cc1ccc(F)c(F)c1)c1ccc(C(=O)Nc2ccncc2)cc1` (centres undefined) displayed a half-inhibitory concentration (IC50) of 50 to 500 nM.

The compound `NC(CC(=O)NCc1ccccc1OC(F)(F)F)c1ccc(C(=O)Nc2ccncc2)cc1` (centres undefined) showed an IC50 of 50 to 500 nM. Turning to `COc1cc(Br)ccc1CCNC(=O)CC(N)c1ccc(C(=O)Nc2ccncc2)cc1` (centres undefined), the IC50 is 50 to 500 nM. For `NC(c1ccc(C(=O)Nc2ccncc2)cc1)C1CCCN1C(=O)Cc1ccc2ccccc2c1` (centres undefined) the value was 500 to 5000 nM. For `CC(C)(C(=O)N1CCCC1C(N)c1ccc(C(=O)Nc2ccncc2)cc1)c1cccs1` (centres undefined) the value was 500 to 5000 nM; for `CN(CC(N)c1ccc(C(=O)Nc2ccncc2)cc1)C(=O)C1CCSc2ccc(F)cc21` (centres undefined), 5000 to 50000 nM; for `NC(CNC(=O)c1cccc(Br)c1)c1ccc(C(=O)Nc2ccncc2)cc1` (centres undefined), 500 to 5000 nM.

In turn, `NC(CNC(=O)C1(c2ccc(F)cc2Cl)CC1)c1ccc(C(=O)Nc2ccncc2)cc1` (centres undefined) showed an IC50 of 50 to 500 nM. As to `COc1ccc(CC(=O)N(C)CC(N)c2ccc(C(=O)Nc3ccncc3)cc2)c(OC)c1` (centres undefined), the IC50 fell in the range of 50 to 500 nM. For `NC(CNC(=O)NC1CCCC1)c1ccc(C(=O)Nc2ccncc2)cc1` (centres undefined) the value was 500 to 5000 nM; for `COc1cccc(CCNC(=O)CC(N)c2ccc(C(=O)Nc3ccncc3)cc2)c1` (centres undefined), 50 to 500 nM.

In turn, `NC(CNC(=O)NC1CCCCC1)c1ccc(C(=O)Nc2ccncc2)cc1` (centres undefined) gave an IC50 of 500 to 5000 nM. Regarding `NC(CNC(=O)CCc1cccnc1)c1ccc(C(=O)Nc2ccncc2)cc1` (centres undefined), the IC50 was 500 to 5000 nM. Then `NC(c1ccc(C(=O)Nc2ccncc2)cc1)C1CCCN1C(=O)Cc1cccc(F)c1` (centres undefined), with 500 to 5000 nM.

For the compound `CC1CCCC(C(=O)NCC(N)c2ccc(C(=O)Nc3ccncc3)cc2)C1` (centres undefined), the 50% inhibitory concentration (IC50) lay in the range of 500 to 5000 nM. `NC(CNC(=O)C1(c2ccc(F)cc2)CC1)c1ccc(C(=O)Nc2ccncc2)cc1` (centres undefined) showed an IC50 below 200 nM. Then `COc1ccc(CNC(=O)CC(N)c2ccc(C(=O)Nc3ccncc3)cc2)cc1OC` (centres undefined), with 50 to 500 nM; and `NC(c1ccc(C(=O)Nc2ccncc2)cc1)C1CCCN1C(=O)Cc1cccc2ccccc12` (centres undefined), with 500 to 5000 nM; and `NC(c1ccc(C(=O)Nc2ccncc2)cc1)C1CCCN1C(=O)C1(c2ccc(Cl)cc2Cl)CC1` (centres undefined), with 500 to 5000 nM.

`NC(CNC(=O)c1ccccn1)c1ccc(C(=O)Nc2ccncc2)cc1` (centres undefined): the half-inhibitory concentration (IC50) lay within 500 to 5000 nM.

Regarding `NC(CC(=O)NCc1cccc2ccccc12)c1ccc(C(=O)Nc2ccncc2)cc1` (centres undefined), the IC50 lay within 50 to 500 nM. For `CN(CC(N)c1ccc(C(=O)Nc2ccncc2)cc1)C(=O)C1CCCc2ccccc21` (centres undefined) the value was 500 to 5000 nM; for `CN(CC(N)c1ccc(C(=O)Nc2ccncc2)cc1)C(=O)Cc1ccc(Br)cc1` (centres undefined), 500 to 5000 nM; for `COc1ccccc1CC(=O)N1CCCC1C(N)c1ccc(C(=O)Nc2ccncc2)cc1` (centres undefined), 500 to 5000 nM.

In turn, `COCC(C)NC(=O)CC(N)c1ccc(C(=O)Nc2ccncc2)cc1` (centres undefined) showed an IC50 of 50 to 500 nM. Then `NC(CC(=O)NCc1ccncc1)c1ccc(C(=O)Nc2ccncc2)cc1` (centres undefined), with 50 to 500 nM; and `NC(c1ccc(C(=O)Nc2ccncc2)cc1)C1CCCN1C(=O)Cc1ccccc1F` (centres undefined), with 50 to 500 nM; and `CN(CC(N)c1ccc(C(=O)Nc2ccncc2)cc1)C(=O)C1(c2cccs2)CC1` (centres undefined), with 500 to 5000 nM.

Turning to `CN(CC(N)c1ccc(C(=O)Nc2ccncc2)cc1)C(=O)C(C)(C)c1ccc(F)cc1` (centres undefined), the 50% inhibitory concentration (IC50) lay within 500 to 5000 nM.

The values are drawn from the Kinase Knowledgebase extract (Sharma et al. 2016).
